# Measured values: article PMC1533168 (Environmental Health Perspectives, 1998)
# Where “and” joins values, the source holds several entries; their conditions need not be identical. Equal entries are not always repeated. Where two headings read alike, the source gives them in different places.
# Assays:
# [1] = Controlled chamber inhalation exposure: trichloroethene in venous blood; assay type: in vivo, human; settings: for Blood model value at t = 0 (Blood, meas): elimination model; for Blood model value at t = 0 (Blood, meas) / Blood model value at t = 240: end of 100 ppmv 4 hr inhalation; for A coefficient (first), blood elimination model / Blood, 1st compartment half-life, elimination / A2 coefficient, blood elimination model: elimination period after 100 ppmv 4 hr inhalation; for Blood model value at t = 240: uptake model; for Blood, 1st compartment half-life, uptake / k1 time constant, blood uptake model: uptake period, 100 ppmv 4 hr inhalation; for k1 time constant, blood uptake model: time in minutes
# [2] = assay type: in vivo, human; settings: for Calc:meas ratio of peak blood level: elimination curves
# [3] = assay type: in vivo, human; settings: for A2 coefficient, breath elimination model / A1 coefficient, breath elimination model / Breath, 1st compartment half-life, elimination / Breath, 2nd compartment half-life, elimination / Breath, 3rd compartment half-life, elimination: elimination period after 100 ppmv 4 hr inhalation; for Breath model value at t = 0: elimination model; for Breath model value at t = 0 / Breath model value at t = 240: end of 100 ppmv 4 hr inhalation; for Breath model value at t = 240: uptake model; for Breath, 1st compartment half-life, uptake / k1 time constant, breath uptake model: uptake period, 100 ppmv 4 hr inhalation
# [4] = cited from earlier work
# [5] = all subjects, 100 ppmv 4 hr inhalation and 20 hr purified air
# [6] = Subject 108, end of 100 ppmv 4 hr inhalation
# [7] = Subject 109, end of 100 ppmv 4 hr inhalation
# [8] = Subject 110, end of 100 ppmv 4 hr inhalation
# [9] = Subject 208, end of 100 ppmv 4 hr inhalation
# [10] = Subject 209, end of 100 ppmv 4 hr inhalation
# [11] = Subject 210, end of 100 ppmv 4 hr inhalation
# [12] = all individual data point pairs, all subjects
# [13] = measured in vitro, ref Fiserova-Bergerova and Diaz (24)
smiles,measurement,setting,value
ClC=C(Cl)Cl [trichloroethene],"Blood model value at t = 0 (Blood, meas)",[1]; Subject 108,"1,170.1 pg/I and 1,170 pg/I"
same,"A coefficient (first), blood elimination model",[1]; Subject 108,820.7 micrograms per liter
same,"Blood, 1st compartment half-life, elimination",[1]; Subject 108,23.54 min
same,Blood model value at t = 240,[1]; Subject 108,"1,317 pg/I"
same,"Blood, 1st compartment half-life, uptake",[1]; Subject 108,26.60 min
same,"k1 time constant, blood uptake model",[1]; Subject 108,0.02606
same,"Blood model value at t = 0 (Blood, meas)",[1]; Subject 109,"2,161.0 pg/I and 2,161 pg/I"
same,"A2 coefficient, blood elimination model",[1]; Subject 109,287.0 micrograms per liter
same,"A coefficient (first), blood elimination model",[1]; Subject 109,1874 micrograms per liter
same,"Blood, 1st compartment half-life, elimination",[1]; Subject 109,17.93 min
same,Blood model value at t = 240,[1]; Subject 109,"1,839 pg/I"
same,"Blood, 1st compartment half-life, uptake",[1]; Subject 109,64.90 min
same,"k1 time constant, blood uptake model",[1]; Subject 109,0.01068
same,"Blood model value at t = 0 (Blood, meas)",[1]; Subject 110,"1,481 pg/I and 1,480.9 pg/I"
same,"A2 coefficient, blood elimination model",[1]; Subject 110,979.1 micrograms per liter
same,"A coefficient (first), blood elimination model",[1]; Subject 110,501.8 micrograms per liter
same,"Blood, 1st compartment half-life, elimination",[1]; Subject 110,6.86 min
same,Blood model value at t = 240,[1]; Subject 110,"1,377 pg/I"
same,"Blood, 1st compartment half-life, uptake",[1]; Subject 110,45.66 min
same,"k1 time constant, blood uptake model",[1]; Subject 110,0.01518
same,"Blood model value at t = 0 (Blood, meas)",[1]; Subject 208,"1,284.6 pg/I and 1,285 pg/I"
same,"A2 coefficient, blood elimination model",[1]; Subject 208,385.1 micrograms per liter
same,"A coefficient (first), blood elimination model",[1]; Subject 208,899.5 micrograms per liter
same,"Blood, 1st compartment half-life, elimination",[1]; Subject 208,12.49 min
same,Blood model value at t = 240,[1]; Subject 208,"1,181 pg/I"
same,"Blood, 1st compartment half-life, uptake",[1]; Subject 208,24.65 min
same,"k1 time constant, blood uptake model",[1]; Subject 208,0.02812
same,"Blood model value at t = 0 (Blood, meas)",[1]; Subject 209,"1,641.0 pg/I and 1,641 pg/I"
same,"A2 coefficient, blood elimination model",[1]; Subject 209,238.0 micrograms per liter
same,"A coefficient (first), blood elimination model",[1]; Subject 209,1403 micrograms per liter
same,"Blood, 1st compartment half-life, elimination",[1]; Subject 209,21.74 min
same,Blood model value at t = 240,[1]; Subject 209,"1,608 pg/I"
same,"Blood, 1st compartment half-life, uptake",[1]; Subject 209,47.12 min
same,"k1 time constant, blood uptake model",[1]; Subject 209,0.01471
same,"Uptake curve model plateau coefficient, blood","[1]; Subject 210, Figure 1A",1132 micrograms per liter
same,"Blood model value at t = 0 (Blood, meas)",[1]; Subject 210,"1,183 pg/I and 1,182.9 pg/I"
same,"A2 coefficient, blood elimination model",[1]; Subject 210,264.4 micrograms per liter and 264 micrograms per liter
same,"A coefficient (first), blood elimination model",[1]; Subject 210,918.5 micrograms per liter and 918 micrograms per liter
same,"Blood, 1st compartment half-life, elimination",[1]; Subject 210,15.39 min
same,Blood model value at t = 240,[1]; Subject 210,"1,128 pg/I"
same,"Blood, 1st compartment half-life, uptake",[1]; Subject 210,28.85 min
same,"k1 time constant, blood uptake model",[1]; Subject 210,0.02403
same,Relevant data range for blood samples,[1]; [5],"100-1,600 pg/I"
same,"In vivo blood/breath partition coefficient, elimination-only data set","[2]; Mean ± SE of 6 subjects, end of 100 ppmv 4 hr inhalation",9.69
same,Calc:meas ratio of peak blood level,[2]; Subject 108,0.76
same,"Blood:breath ratio at end of exposure, calculated from elimination models",[2]; [6],12.11
same,"Blood:breath ratio at end of exposure, calculated from uptake models",[2]; [6],12.45
same,Calc:meas ratio of peak blood level,[2]; Subject 109,0.75
same,"Blood:breath ratio at end of exposure, calculated from elimination models",[2]; [7],12.31
same,"Blood:breath ratio at end of exposure, calculated from uptake models",[2]; [7],14.12
same,Calc:meas ratio of peak blood level,[2]; Subject 110,1.01
same,"Blood:breath ratio at end of exposure, calculated from elimination models",[2]; [8],9.11
same,"Blood:breath ratio at end of exposure, calculated from uptake models",[2]; [8],11.96
same,Calc:meas ratio of peak blood level,[2]; Subject 208,0.93
same,"Blood:breath ratio at end of exposure, calculated from elimination models",[2]; [9],9.89
same,"Blood:breath ratio at end of exposure, calculated from uptake models",[2]; [9],11.97
same,Calc:meas ratio of peak blood level,[2]; Subject 209,0.90
same,"Blood:breath ratio at end of exposure, calculated from elimination models",[2]; [10],10.18
same,"Blood:breath ratio at end of exposure, calculated from uptake models",[2]; [10],10.94
same,Calc:meas ratio of peak blood level,[2]; Subject 210,1.51
same,"Blood:breath ratio at end of exposure, calculated from elimination models",[2]; [11],6.07
same,"Blood:breath ratio at end of exposure, calculated from uptake models",[2]; [11],9.99
same,"Blood/breath regression slope (mean blood/breath ratio), elimination phase",[2]; [12],29.00
same,"Blood/breath regression slope (mean blood/breath ratio), uptake phase",[2]; [12],10.93
same,Inspired trichloroethene excreted through exhalation,[2]; at equilibrium,about 22%
same,Share of the expired trichloroethene coming from the blood (first) compartment,[2]; elimination phase after 4-hr exposure,about 75%
same,"In vivo blood/breath partition coefficient, overall mean","[2]; experiment time = 0, all subjects, uptake and elimination experiments",10.8
same,Mean time constant for breath relative to its blood counterpart (times as large),"[2]; initial 10 min of elimination, first compartment dominant",10
same,Time constant for breath relative to that for blood (times as large),[2]; uptake portion of the experiment,about 2.5
same,"A2 coefficient, breath elimination model",[3]; Mean ± SE of 6 subjects,28.67 6.26 micrograms per liter
same,Breath model value at t = 0,[3]; Subject 108,96.6 pg/I
same,"A1 coefficient, breath elimination model",[3]; Subject 108,76.7 micrograms per liter
same,"A2 coefficient, breath elimination model",[3]; Subject 108,15.21 micrograms per liter
same,"Breath, 1st compartment half-life, elimination",[3]; Subject 108,4.40 min
same,"Breath, 2nd compartment half-life, elimination",[3]; Subject 108,54.15 min
same,"Breath, 3rd compartment half-life, elimination",[3]; Subject 108,424.98 min
same,Breath model value at t = 240,[3]; Subject 108,105.8 pg/I
same,"Breath, 1st compartment half-life, uptake",[3]; Subject 108,9.90 min
same,"k1 time constant, breath uptake model","[3]; Subject 108, time in minutes",0.07004
same,Breath model value at t = 0,[3]; Subject 109,175.5 pg/I
same,"A1 coefficient, breath elimination model",[3]; Subject 109,115.8 micrograms per liter
same,"A2 coefficient, breath elimination model",[3]; Subject 109,53.76 micrograms per liter
same,"Breath, 1st compartment half-life, elimination",[3]; Subject 109,1.15 min
same,"Breath, 2nd compartment half-life, elimination",[3]; Subject 109,27.16 min
same,"Breath, 3rd compartment half-life, elimination",[3]; Subject 109,541.52 min
same,Breath model value at t = 240,[3]; Subject 109,130.3 pg/I
same,"Breath, 1st compartment half-life, uptake",[3]; Subject 109,9.59 min
same,"k1 time constant, breath uptake model","[3]; Subject 109, time in minutes",0.07229
same,Breath model value at t = 0,[3]; Subject 110,162.5 pg/I
same,"A1 coefficient, breath elimination model",[3]; Subject 110,146.2 micrograms per liter
same,"A2 coefficient, breath elimination model",[3]; Subject 110,13.41 micrograms per liter
same,"Breath, 1st compartment half-life, elimination",[3]; Subject 110,4.07 min
same,"Breath, 2nd compartment half-life, elimination",[3]; Subject 110,88.18 min
same,"Breath, 3rd compartment half-life, elimination",[3]; Subject 110,"1,269.50 min"
same,Breath model value at t = 240,[3]; Subject 110,115.2 pg/I
same,"Breath, 1st compartment half-life, uptake",[3]; Subject 110,39.05 min
same,"k1 time constant, breath uptake model","[3]; Subject 110, time in minutes",0.01775
same,Breath model value at t = 0,[3]; Subject 208,129.9 pg/I
same,"A1 coefficient, breath elimination model",[3]; Subject 208,104.4 micrograms per liter
same,"A2 coefficient, breath elimination model",[3]; Subject 208,21.21 micrograms per liter
same,"Breath, 1st compartment half-life, elimination",[3]; Subject 208,0.97 min
same,"Breath, 2nd compartment half-life, elimination",[3]; Subject 208,29.98 min
same,"Breath, 3rd compartment half-life, elimination",[3]; Subject 208,396.31 min
same,Breath model value at t = 240,[3]; Subject 208,98.6 pg/I
same,"Breath, 1st compartment half-life, uptake",[3]; Subject 208,9.92 min
same,Breath model value at t = 0,[3]; Subject 209,161.2 pg/I
same,"A1 coefficient, breath elimination model",[3]; Subject 209,114.1 micrograms per liter
same,"A2 coefficient, breath elimination model",[3]; Subject 209,36.96 micrograms per liter
same,"Breath, 1st compartment half-life, elimination",[3]; Subject 209,2.68 min
same,"Breath, 2nd compartment half-life, elimination",[3]; Subject 209,21.44 min
same,"Breath, 3rd compartment half-life, elimination",[3]; Subject 209,262.26 min
same,Breath model value at t = 240,[3]; Subject 209,147.0 pg/I
same,"Breath, 1st compartment half-life, uptake",[3]; Subject 209,21.42 min
same,"k1 time constant, breath uptake model","[3]; Subject 209, time in minutes",0.03236
same,"Uptake curve model plateau coefficient, breath","[3]; Subject 210, Figure 1B",113 micrograms per liter
same,"k3 time constant, breath elimination model","[3]; Subject 210, Figure 1D, time in minutes",.00061
same,Breath model value at t = 0,[3]; Subject 210,194.7 pg/I
same,"A1 coefficient, breath elimination model",[3]; Subject 210,156.8 micrograms per liter and 157 micrograms per liter
same,"A2 coefficient, breath elimination model",[3]; Subject 210,31.47 micrograms per liter and 31.5 micrograms per liter
same,"Breath, 1st compartment half-life, elimination",[3]; Subject 210,1.03 min
same,"Breath, 2nd compartment half-life, elimination",[3]; Subject 210,40.30 min
same,"Breath, 3rd compartment half-life, elimination",[3]; Subject 210,"1,145.89 min"
same,Breath model value at t = 240,[3]; Subject 210,113.0 pg/I
same,"Breath, 1st compartment half-life, uptake",[3]; Subject 210,18.94 min
same,"k1 time constant, breath uptake model","[3]; Subject 210, time in minutes",0.0366
same,Relevant data range for breath samples,[3]; [5],<1-150 pg/I
same,Blood/air partition coefficient,[4]; [13],8.1
same,Partition coefficient for lung tissue,[4]; [13],14.0
same,Blood/air partition coefficient,"[4]; measured in vitro, ref Gargas et al. (22)",8.11
same,Blood/air partition coefficient,"[4]; measured in vitro, ref Lindqvist (23)",15.7
same,"Blood/breath partition coefficient, accepted literature value","[4]; used in human pharmacokinetic model, ref Allen and Fisher (26)",9.2
same,Pulmonary partition coefficient,"[4]; value used, ref Fernandez et al. (25)",9
